Tests used:
[1] = system: patients with pruritus associated with atopic dermatitis; conditions: human, in vivo
Method: In another small uncontrolled and unblinded trial, one group of patients with pruritus associated with atopic dermatitis was treated with a spray (aqueous buffered solution of 40 mg/ml hydroxyzine hydrochloride), which was topically applied to an area of the patients' skin affected by atopic dermatitis. The patients were instructed to spray about 0.1 ml (three pump actions of the manually operated spray bottle) of the composition onto an area of about 10 cm^2 affected by symptomatic itching for up to 5 applications per day for a period of two weeks. A second group of group of patients with pruritus associated with atopic dermatitis was treated with a cream (W/O emulsion containing 2% (wt) hydroxyzine hydrochloride), which was topically applied to an area of the patients' skin affected by atopic dermatitis. The patients were instructed to massage a small portion (about 0.2 gram) into an area of about 10 cm^2 affected by symptomatic itching for up to 5 applications per day for a period of two weeks.

[2] = system: patients with pruritus (neurodermatitis; insect bite); test: Small, uncontrolled and unblinded trial of hydroxyzine*HCl skin cream in two patients with pruritus; format: in vivo, human; conditions: skin cream comprising 5% (by weight) hydroxyzine*HCl, both patients
Method: In a small, uncontrolled and unblinded trial, two patients with pruritus were treated with a skin cream comprising 5% (by weight) hydroxyzine*HCl. The first patient was diagnosed with neurodermatitis (a non-allergic condition), while the second patient was diagnosed with an insect bite (an allergic condition).

patients who experienced weight gain of at least 4% ([1]; 2 months)	patients who experienced drowsiness ([1]; 2 weeks)	patients who experienced transient tachycardia ([1]; 2 weeks)	Compound	time to positive result (significant reduction in pruritus) [2] [s]	positive result (reduction in pruritus) ([2]; two patients (neurodermatitis, insect bite))
5/15			CN1CCC(=C2c3ccccc3C=Cc3ccccc32)CC1 [cyproheptadine]		
	13/15	4/15	Cl.Cl.OCCOCCN1CCN(C(c2ccccc2)c2ccc(Cl)cc2)CC1 (centres unmarked) [hydroxyzine, 1-(p-chlorobenzhydryl) 4-[2-(2-hydroxyethoxy)-ethyl] piperazine dihydrochloride]	60	significant reduction in pruritus

— patent US20030212078A1, “Topical administration of pharmacological compositions for non-systemic treatment of pruritus” (priority 2003, published 2003)
